Experimental data from publication PMC9307114, “Discovery and SAR analysis of phenylbenzo[d][1,3]dioxole-based proprotein convertase subtilisin/kexin type 9 inhibitors” (Journal of Enzyme Inhibition and Medicinal Chemistry, 2022).

Tests used:
HepG2 cells = test: MTT assay on HepG2 cells; format: cell-based; details: Homo sapiens, mean of three experiments, read-out: HepG2 percentage inhibitory rate
[1] = test system: LDLR level on the surface of HepG2 cells; test: LDLR expression assay, In-Cell Western (ICW), in the presence of PCSK9; format: cell-based, human; details: for effect on LDLR protein level (in words): HepG2 cells in the presence of PCSK9, compared with positive control SBC-115337; for proportion of LDLR: PCSK9 alone 34.33%
Method: LDLR is degraded in lysosomes by binding to PCSK9. Thus, inhibition of PCSK9/LDLR PPI could increase the LDLR level on the surface of hepatocytes. In the current study, human hepatic HepG2 cells were selected for the investigation of the active compounds for LDLR expression. SBC-115337, developed by Shifa Biomedical Corporation, as a potent PCSK9/LDLR PPI inhibitor was utilised as the positive control. All the synthesised compounds were evaluated to be safe with low inhibitory ratios at the dose of 10 µM in the MTT assay (Tables 1–3). Then, in cell western (ICW) assay was performed to detect the LDLR level on the surface of HepG2 cells.
The HepG2 cell line was grown in a humidified incubator with 5% CO2 at 37 °C and cultured in DMEM-High glucose medium with 10% (v/v) heat-inactivation foetal bovine serum, 2 mM L-glutamine and 100 U/ml penicillin-streptomycin. The expression level of LDLR in HepG2 cells was determined by In-Cell Western (ICW) Assay as described previously. Briefly, cells were plated in a 96-well plate (2 × 10^4 cells per well) and cultured for more than 24 h, followed by washing with PBS and starving overnight in DMEM without FBS. HepG2 cells were treated with 4.0 μg/ml PCSK9 (K9) alone and the tested compounds with the presence of 4.0 μg/ml of K9, and vehicle (PBS) for 8 h. Then cells were washed with PBS one time and fixed in 4% paraformaldehyde for 20 min. Cells were washed 5 times with PBS, then were blocked with 5% BSA in PBS for 1 h. LDLR monoclonal Antibody solution (1:1000 in 5% BSA in PBS, 50.0 μL/well) was incubated overnight at 4 °C. Subsequently, the cells were washed 5 times with PBS. Goat anti-mouse IgG-HRP secondary antibody solution (1:2000 in 5% BSA in PBS, 50.0 μL/well) was added and incubated 1 h at RT. Then cells were washed 5 times with PBS and added with TMB substrate, then incubated at RT until desired colour was developed. 50.0 μL/well of 2 M H2SO4 were added to stop the reaction and the absorbance at 450 nm was measured using a plate reader (EnSpire, Perkin Elmer Corporation).

[2] = test system: LDL uptake of HepG2 cells; test: Fluorescent LDL uptake assay in the presence of PCSK9; format: cell-based, human; details: PCSK9 treatment group 29.82%
Method: Extracellular LDL uptake assay was performed to evaluate the functional effects of PCSK9/LDLR PPI inhibition. The effects of active compounds in improving the capacity of HepG2 cells to uptake the fluorescent LDL were investigated using SBC-115337 as the positive control. […] The tested compound A12, B1, B3, B4 and B14 strengthened the ability of HepG2 cells to absorb LDL from 29.82% of the PCSK9 treatment group up to 32.78%, 33.29%, 39.58%, 36.24% and 42.41% at the doses of 5 µM, and 44.80%, 47.15%, 50.67%, 49.94 and 64.27% at the doses of 10 µM, respectively.
HepG2 cells (2 × 10^4 cells per well) were seeded in black 96-well plates and cultured for more than 24 h. The following day, cells were treated with 4.0 μg/ml K9 alone and the tested compounds with the presence of 4.0 μg/ml of K9, and vehicle (PBS) for 8 h. At the end of the treatments, the culture medium was replaced with 50.0 μl/well LDL-DyLight™ 550 working solution (Cayman Chemical Company, US). The cells were additionally incubated for 16 h at 37 °C. Then the cells were washed with PBS one time, then added PBS with 100.0 μl/well. The degree of LDL uptake was measured using a plate reader (EnSpire, Perkin Elmer Corporation) at excitation wavelengths 540 nm and emission wavelengths 570 nm.

PCSK9/LDLR PPI = PCSK9/LDLR PPI (Homo sapiens, UniProt Q8NBP7); test: PCSK9-LDLR TR-FRET assay (PCSK9/LDLR PPI inhibitory screening); format: binding; details: for inhibition at 10 µM: mean of three experiments, read-out: PCSK9 percentage inhibitory rate; for IC50: dose-dependent IC50 plot, Figure 3, read-out: PCSK9 IC50 (inhibition of PCSK9/LDLR PPI)
Method: The PCSK9/LDLR time-resolved fluorescence resonance energy transfer (TR-FRET) assay was performed to evaluate the activity of synthesised compounds in inhibition of PCSK9-LDLR binding. The A series compounds were firstly synthesised for the PCSK9/LDLR PPI inhibitory test. […] Therefore, a group of A12 derivatives (B series) were synthesised with 4-chlorobenzyl substituted in the amino group and various substitutions introduced to the carboxylic group. […] To confirm whether the 4-chloromethyl group is essential for the PPI inhibitory activity, a new series of compounds (C series) were synthesised with the 4-chloromethyl group replaced by 4-methoxymethyl moiety. The inhibitory activity was observed, most likely resulting from the 4-methoxymethyl substitution (Table 3).
The compounds were dissolved in 100% DMSO; then 2 µL of the dilution was added to a 20 µL of reaction to keep […] in all of reactions. The binding reaction was conducted at room temperature. The reaction mixture in assay buffer contains PCSK9, the indicated amount of the inhibitor, ligand LDLR, and the reaction dyes. The reaction mixture was incubated for 120 min before detection of the TR-FRET signal. Fluorescence signals for both the donor and acceptor dyes were measured using a Tecan Infinite M1000 plate reader. TR-FRET was recorded as the ratio of the fluorescence of the acceptor and the donor dyes (acceptor/donor). The TR-FRET data were analysed using Graphpad Prism software.

[3] = 5 µM compound with 4.0 μg/ml PCSK9
[4] = 10 µM compound with 4.0 μg/ml PCSK9

Sequence of PCSK9/LDLR PPI (Q8NBP7 153-692): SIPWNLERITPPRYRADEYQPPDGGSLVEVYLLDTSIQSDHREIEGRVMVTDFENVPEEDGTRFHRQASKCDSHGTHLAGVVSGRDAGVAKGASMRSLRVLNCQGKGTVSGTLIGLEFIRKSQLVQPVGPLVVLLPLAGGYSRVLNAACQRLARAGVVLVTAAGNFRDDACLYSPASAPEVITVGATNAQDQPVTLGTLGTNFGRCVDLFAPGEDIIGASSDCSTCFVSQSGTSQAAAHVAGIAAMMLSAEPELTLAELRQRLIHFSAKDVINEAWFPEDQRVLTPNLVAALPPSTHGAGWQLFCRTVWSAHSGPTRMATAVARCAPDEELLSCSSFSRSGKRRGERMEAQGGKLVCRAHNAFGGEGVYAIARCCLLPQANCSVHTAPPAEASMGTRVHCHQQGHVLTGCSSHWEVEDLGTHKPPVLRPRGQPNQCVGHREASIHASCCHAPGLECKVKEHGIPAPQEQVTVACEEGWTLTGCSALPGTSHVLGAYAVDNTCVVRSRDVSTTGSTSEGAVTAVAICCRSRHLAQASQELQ
Sequence of PCSK9/LDLR PPI (Q8NBP7 31-152 partner limits assumed): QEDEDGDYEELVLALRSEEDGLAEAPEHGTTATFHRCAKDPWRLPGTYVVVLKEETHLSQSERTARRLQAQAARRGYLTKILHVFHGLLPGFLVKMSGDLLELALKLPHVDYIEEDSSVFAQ

| inhibition at 10 µM (PCSK9/LDLR PPI) | IC50 (PCSK9/LDLR PPI) | SMILES | inhibition at 10 µM (HepG2 cells) | effect on LDLR protein level (in words) [1] | LDL uptake of HepG2 cells [2, 3] | LDL uptake of HepG2 cells [2, 4] | proportion of LDLR ([1]; 5 µM compound with 4.0 μg/ml PCSK9, 8 h) | proportion of LDLR ([1]; 10 µM compound with 4.0 μg/ml PCSK9, 8 h) |
| --- | --- | --- | --- | --- | --- | --- | --- | --- |
| 45.2 ± 2.85% | 24.6 µM | O=C(Nc1ccc(O)cc1)c1ccc(-c2cc3c(cc2NC(=O)c2ccc(CCl)cc2)OCO3)cc1 [B4, 4-(Chloromethyl)-N-(6-(4-((4-hydroxyphenyl)carbamoyl)phenyl)benzo[d][1,3]dioxol-5-yl)benzamide] | 5.42 ± 0.38% | restored the LDLR protein level in a dose dependent manner | 36.24% | 49.94% | – | – |
| 64.6 ± 1.54% | 16.4 µM | COc1ccccc1N1CCN(C(=O)c2ccc(-c3cc4c(cc3NC(=O)c3ccc(CCl)cc3)OCO4)cc2)CC1 [B14, 4-(Chloromethyl)-N-(6-(4-(4-(2-methoxyphenyl)piperazine-1-carbonyl)phenyl)benzo[d][1,3]dioxol-5-yl)benzamide] | 5.71 ± 0.54% | restored the LDLR protein level in a dose dependent manner | 42.41% | 64.27% | 50.55% | 66.51% |
